Results taken from a melting point compilation (Tetko et al.; mined from patent text by program, amines drawn as free bases though some values may be those of a salt).

Row | SMILES | melting point [°C]
1 | ClC(Cl)(Cl)c1nnc(Br)s1 | 39
2 | N#Cc1cnc2sc(-c3ccc(CN)cc3)cc2c1Nc1ccc2[nH]ccc2c1 | > 260
3 | CNc1nnc(-c2ccc3ncn(-c4ccc(OC(F)F)cc4)c3c2)o1 | 195 to 196
4 | CN1C(=O)C=C(c2c[nH]c3ncccc23)C1=O | > 250
5 | NS(=O)(=O)c1ccc(C2=C(c3ccc(F)cc3)CC3(CC3)C2)cc1 | 131 to 133
6 | Cc1cccc2c1N(CC(=O)c1cccc([N+](=O)[O-])c1)C(=O)C(NC(=O)Nc1cccc(-c3nnn[nH]3)c1)N=C2c1ccccc1F (centres undefined) | 194 to 198
7 | CCCCCCCCCCCCCCCCc1ccc(S(=O)(=O)Cl)cc1 | 35 to 36
8 | COC(CCC(N)=C(SC)S(C)=O)OC (centres undefined) | 86 to 87
9 | CC[C@H](COC)n1cc(Cl)nc(N2CCc3cc(OC)cc(Br)c32)c1=O | 100 to 102
10 | O=C1c2ccccc2C(=O)N1Cc1noc(-c2ncn3c2[C@@H]2CCN2C(=O)c2cc(F)ccc2-3)n1 | 287 to 288
11 | CC(=NO)c1ccc2c(c1O)OC(CO)CO2 (centres undefined) | 162
12 | COc1cc(C(=O)Nc2c(Cl)cncc2Cl)ccc1OC(F)F | 170
13 | C#CC(C)(O)c1ccc(Oc2ccc(Cl)cc2)cc1 (centres undefined) | 55 to 57
14 | COC(=O)NC1=NC(c2ccc(F)cc2)CCN1 (centres undefined) | 211 to 212
15 | CC(=O)N1CCc2ccsc2C1=O | 92
16 | CCCCNC(=O)CN1C(=O)C(NC(=O)OCc2ccccc2)N=C(c2ccccc2)c2ccccc21 (centres undefined) | 127 to 129
17 | CC(C)(C)c1cc(CNc2cccc(Br)c2CO)c(C(=O)O)s1 | 68 to 69
18 | N#CCCSN1C(=O)c2ccccc2C1=O | 162 to 164
19 | COC(=O)C1CC(c2ccncc2)CCC1=O (centres undefined) | 82 to 83
20 | CNCC1=NN=C(c2ccc([N+](=O)[O-])cc2)c2cc3c(cc2C1)OCO3 | 110 to 112
21 | O=C1NCCOc2c1sc1ccccc21 | 244 to 245

Row | SMILES | melting point [°C]
22 | CCOP(=O)(OCC)ON=C1C=CC(=C(C#N)c2ccccc2C)S1 | 90 to 91
23 | CC(C)=C1Cc2ccc3nc(C)oc3c2C1=O | 156 to 159
24 | CC(=O)c1ccc(-c2ccc(F)cc2F)c(F)c1 | 92 to 94
25 | N#CC(C#N)=CN(N=C(C#N)C#N)c1ccc(F)cc1F | 140 to 142
26 | O=C(NC1CCCCC1)OCc1ccccc1[N+](=O)[O-] | 101 to 102
27 | NCCCNc1ccc(NCCCN)c2c1C(=O)c1c(O)ccc(O)c1C2=O | 115 to 130
28 | CN(C)C(=O)C=Cc1ccc(SC2Cc3cc(O)ccc3C3CCC4(C)C(O)CCC4C23)cc1 (centres undefined) | 152 to 155
29 | CCCc1cc2cc(OCC(=O)O)c(Cl)c(Cl)c2s1 | 165 to 166
30 | CC1(C)CC(C)(c2ccc(Oc3cccc([N+](=O)[O-])c3)cc2)c2cc(Oc3cccc([N+](=O)[O-])c3)ccc21 (centres undefined) | 90 to 92
31 | N#Cc1c2c(c3c(c1N1CCCCC1)CCc1ccccc1-3)-c1ccccc1C2 | 170 to 172
32 | COC(=O)c1cc([N+](=O)[O-])c(Oc2cc(C)cc(C)c2)c(S(N)(=O)=O)c1 | 197 to 198
33 | COC(=O)C1(N(O)C(=O)Cc2c(C)cc(Cl)cc2C)CCN(OC)CC1 | 228 to 231
34 | Cn1c(=N)c(C(=O)NCCO)c(O)c2cc(Cl)ccc21 | 234 to 237
35 | CC1CCC(Nc2ccccc2)c2nccc(=O)n21 (centres undefined) | 160 to 162
36 | CN1CCC(N2C(=O)c3cc(Cl)ccc3Sc3ccccc32)CC1 | 164 to 165
37 | O=C1CCCCC1C(C[N+](=O)[O-])c1ccc(Cl)cc1 (racemic) | 96 to 97
38 | OC1CCc2[nH]c3ccccc3c2C1 (centres undefined) | 140
39 | CC1(C)CC(N(c2nc(F)nc(N(C3CC(C)(C)N(O)C(C)(C)C3)C3CC(C)(C)N(O)C(C)(C)C3)n2)C2CC(C)(C)N(O)C(C)(C)C2)CC(C)(C)N1O | 254 to 257
40 | O=C(CCCCC1CCSS1)NO (centres undefined) | 63 to 64
41 | O=C(O)c1ccc(C(=O)N2CCN(C(=O)N3CCOCC3)CC2)cc1 | 203 to 205
42 | COCc1ccc(-c2ccc3c(c2)C=C(C(=O)Nc2ccc(CN(C)C4CCOCC4)cc2)CCS3(=O)=O)cc1 | 227 to 229

Row | SMILES | melting point [°C]
43 | c1cnc2c(c1)Cc1ncccc1-2 | 85
44 | Cc1cc(F)cnc1Cl | 38 to 40
45 | CC1Cc2cc3c(cc2C(c2ccc([N+](=O)[O-])cc2)=NN1c1n[nH]c(=O)s1)OCO3 (centres undefined) | 288
46 | N#Cc1ccc(C=C2CCCN(C(=O)c3ccc(Cl)cc3)C2)cc1 | > 210
47 | CN1CCC23c4c5ccc(OCCCN)c4OC2C(O)C=CC3C1C5 (centres undefined) | 132 to 134
48 | COc1ncc([N+](=O)[O-])c(OC)n1 | 92 to 93
49 | CN1CCN(Cc2ccccc2C(F)(F)F)C(C2=NCCN2)C1 (centres undefined) | 163 to 165
50 | CCCCCc1ccc(C2c3c(C)c(N)c(C)c(C)c3OC2(C)C)cc1 (centres undefined) | 67 to 68
51 | O=c1[nH]c2cc(F)c(F)cc2c(=O)n1CCCN1CC=C(c2ccc(Cl)cc2)CC1 | 204 to 205
52 | CC(C)=CCCC(C)=CCCC(C)=Cc1ccc(C(=O)O)cc1 | 92 to 92.5
53 | O=c1[nH]nc2n1-c1ccccc1OC2 | 198
54 | O=S=NNc1cccc(C(F)(F)F)c1 | 100
55 | O=C1CCCc2scnc21 | 121 to 122
56 | N#CCc1cc2c(cc1CC#N)OCO2 | 105 to 107
57 | CC(C)CNc1nc2c(n1C)C(=O)N1CCN=C1N2Cc1ccc(Cl)cc1 | 185 to 187
58 | S=C(NCc1ccccc1Cl)N1CCc2c([nH]c3ccccc23)C1c1ccc2c(c1)OCO2 (centres undefined) | 123 to 128
59 | NC(N)=NC(=O)c1ccc2c(c1)S(=O)(=O)CC2O (centres undefined) | 240 to 241
60 | O=C(O)Cn1nnnc1S | 110 to 111
61 | COC(=O)CCC(NC(=O)CCCC#Cc1cnc2nc(NC(=O)C(C)(C)C)nc(O)c2c1)C(=O)OC (centres undefined) | 159 to 160
62 | Fc1ccc(-c2nc(S)ncc2CCN2CCC(=Cc3ccccc3F)CC2)cc1 | 157 to 158

Now from value to compound:

Row | melting point [°C] | SMILES
63 | > 300 | COc1ccc(-c2[nH]nc3c2C(=O)c2c(NC(=O)CN)cccc2-3)cc1
64 | 124 to 126 | CCN(CC)CCN1c2cc(Cl)ccc2S[C@H]2[C@@H](OC(=O)c3ccccc3)[C@H](OC(=O)c3ccccc3)[C@@H](COC(=O)c3ccccc3)O[C@H]21
65 | 118 to 120 | O=C(Nc1ccc2c(c1)CCSCC2)OCc1ccccc1
66 | 134 to 136 | CCOC(=O)C(C(=O)OCC)[C@@H](c1ccccc1)c1c[nH]c2cccc(OC)c12
67 | 308 to 309 | Cn1c2ccccc2c(=O)c2c([N+](=O)[O-])cccc21
68 | 154 | Nc1ncc(-c2ccccc2COc2ccccc2)s1
69 | 9 | CON(C)C(=O)c1ccc(F)cc1
70 | 122 to 123 | O=c1oc(-c2ccc(CCc3ccccc3)cc2)cc(O)c1SCCc1ccccc1
71 | 86 to 87 | Cc1ccc(S(=O)(=O)OCCC2(C)OCCc3nc(-c4ccccc4)sc32)cc1 (centres undefined)
72 | 70 to 72.5 | COC1(C)CCc2c(C)c(OCc3ccccc3)c(C)c(C)c2O1 (centres undefined)
73 | 191 to 194 | CCc1nc2c(C)cc(C)nc2n1Cc1ccc2oc(-c3cccc(F)c3C(=O)O)c(Br)c2c1
74 | 139 to 146 | Cn1nnnc1SCC1c2cc(OC(=O)c3cccs3)c(OC(=O)c3cccs3)cc2CCN1C(=O)OCC(Cl)(Cl)Cl (centres undefined)
75 | 253 | COc1ccc(-c2ccc(C(=O)O)cc2)cc1F
76 | 117 | CC(C)(C)OC(=O)n1c(C(=O)O)cc2ccccc21
77 | 232 | O=C(O)CCc1ccc(-c2nc(=O)c3ccccc3s2)nc1
78 | 91 to 97 | CN(C)C(=O)n1cc(C(=O)C2CSC(c3cccnc3)N2)c2ccc(-c3ccccc3)cc21 (centres undefined)
79 | 115 to 117 | CCCn1c(=Nc2ccc(C(=O)OCC)cc2)sc2ncccc2c1=O
80 | 224 to 225 | O=C1NC(=O)C(=Cc2ccc(S(=O)(=O)CCCc3ccccc3)cc2)S1
81 | 148 to 149 | CCOC(=O)/C=C/c1cn(Cc2ccc(OCc3nc(-c4ccccc4)oc3C)cc2)nc1OCc1ccc(OCc2nc(-c3ccccc3)oc2C)cc1

Row | melting point [°C] | SMILES
82 | 122 to 124 | COC(=O)[C@@H](OS(=O)(=O)c1ccc(C)cc1)[C@H](O)c1ccc(F)cc1
83 | 283 to 286 | CCCc1cc2nn(Cc3ccc(NC(=O)c4ccccc4S(=O)(=O)O)cc3)c(=O)n2c(C)n1
84 | 88.4 to 89.1 | CCOC(=O)C1(C(=O)OCC)CCC2(CC1)c1cc(OCC)c(OCC)cc1CCN2C(=O)OCc1ccccc1
85 | 156 to 158 | CSc1nn2c(N3CCN(Cc4ccccc4)CC3)cc(C)nc2c1S(=O)(=O)c1ccccc1
86 | 209 to 211 | O=C(O)c1cccc2c1CCc1ccc(F)cc1S2
87 | 150 to 151 | CS(=O)(=O)N1CCC(C(=O)Nc2ccccc2Oc2ccc(Cl)cc2Cl)CC1
88 | 192 | CC(C)(C)OC(=O)Nc1nc2cc(NC(=O)C(=O)N3CCC(Cc4ccccc4)CC3)ccc2[nH]1
89 | 73 to 75 | CCC(=O)C1CN(C(c2ccccc2)c2ccccc2)C1
90 | 190 to 193 | CC(C)(C)c1ccc(OCC(O)CN2CCC(N3CCC4(CC3)CSC3=C(O4)c4ccccc4C(=O)C3=O)CC2)cc1 (centres undefined)
91 | 75 to 76 | CCCCCN1C(=O)C(c2ccc3c(c2)OCO3)(c2cc3c(cc2O)OCO3)c2ccccc21 (centres undefined)
92 | 118 to 120 | CC(=O)N(C(=O)c1ccccc1O)C(C)C(=O)O (racemic)
93 | 119 to 122 | COc1cccc([C@H]2O[C@H](CC(=O)Nc3cccc(CCCC(=O)O)c3)C(=O)N(CC(C)(C)CO)c3ccc(Cl)cc32)c1OC
94 | 121 to 123 | CSc1ncccc1NC(=O)CCCCCSc1nc2ccccc2[nH]1
95 | 172 | Oc1cc(/C=C/c2ccccc2)cc(O)c1O
96 | 202 to 204 | CCN(CC)c1ccc2c(c1)Oc1cc(N(Cc3ccccc3)C(C)=O)c3ccccc3c1N2C(C)=O
97 | 165 | CCOC(=O)c1c(C)nc2c(C(F)(F)F)cccc2c1O
98 | 132 to 134 | COC(=O)c1nc(-c2ccc(Cl)cc2)nc(NCc2ccco2)c1Cl
99 | 122 to 123 | COc1ccc(-c2ccccc2C(SCC(=O)c2ccccc2)C(OC(C)=O)C(N)=O)cc1 (centres undefined)
